In patent publication US11634447B2 (priority 2012, dated 2023):

The molecules below were run on bacterial strain LF82 binding to the glycoprotein BSA-(Mannose)3 (assay: Bacterial Binding Assay (BBA)). Conditions: read-out: Bacterial Binding Assay IC50, LF82/Luciferase strain binding to BSA-(Man)3 coated plates, luminescence.
Format: cell-based, Escherichia coli
Summary of the method: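 Inhibition of LF82/luciferase E. coli adhesion is read as luminescence after washing off unbound cells. Compound and bacteria (10^7 per well) are co-incubated 40-75 min at room temperature on wells coated with 0.5-2 μg/mL BSA-(Man)3, with BSA-only wells as background; IC50 values derived.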

Point of comparison: `OC[C@H]1O[C@H](C#Cc2ccc3c(c2)C(O)(CC2CCCC2)c2cc(C#C[C@H]4O[C@H](CO)[C@@H](O)[C@H](O)[C@@H]4O)ccc2-3)[C@@H](O)[C@@H](O)[C@@H]1O` (stereo partly drawn) [Compound 214, (2R,3S,4R,5S,6R)-2-[2-[9-(cyclopentylmethyl)-9-hydroxy-7-[2-[(2R,3S,4R,5S,6R)-3,4,5-trihydroxy-6-(hydroxymethyl)tetrahydropyran-2-yl]ethynyl]fluoren-2-yl]ethynyl]-6-(hydroxymethyl)tetrahydropyran-3,4,5-triol], IC50 0.45 nM. Against it:
- OCC(O)Cn1c2ccc(C#C[C@H]3O[C@H](CO)[C@@H](O)[C@H](O)[C@@H]3O)cc2c2cc(C#C[C@H]3O[C@H](CO)[C@@H](O)[C@H](O)[C@@H]3O)ccc21 (stereo partly drawn) [Compound 174, (2R,3S,4R,5S,6R)-2-[2-[9-(2,3-dihydroxypropyl)-6-[2-[(2R,3S,4R,5S,6R)-3,4,5-trihydroxy-6-(hydroxymethyl)tetrahydropyran-2-yl]ethynyl]carbazol-3-yl]ethynyl]-6-(hydroxymethyl)tetrahydropyran-3,4,5-triol] — 10-fold higher, 4.7 nM
- OC[C@H]1O[C@H](C#Cc2ccc(C#C[C@H]3O[C@H](CO)[C@@H](O)[C@H](O)[C@@H]3O)c(Cl)c2Cl)[C@@H](O)[C@@H](O)[C@@H]1O [Compound 75] — 170-fold higher, 76 nM
- CC(C)C(=O)N1CCC2(CC1)c1cc(C#C[C@H]3O[C@H](CO)[C@@H](O)[C@H](O)[C@@H]3O)ccc1-c1ccc(C#C[C@H]3O[C@H](CO)[C@@H](O)[C@H](O)[C@@H]3O)cc12 [Compound 224, 1-[2,7-bis[2-[(2R,3S,4R,5S,6R)-3,4,5-trihydroxy-6-(hydroxymethyl)tetrahydropyran-2-yl]ethynyl]spiro[fluorene-9,4piperidine]-1yl]-2-methyl-propan-l-one] — 5.6-fold lower, 0.08 nM
- Cn1ccc(C(=O)c2c(C#C[C@H]3O[C@H](CO)[C@@H](O)[C@H](O)[C@@H]3O)ccc3c2C2(CCNCC2)c2cc(C#C[C@H]4O[C@H](CO)[C@@H](O)[C@H](O)[C@@H]4O)ccc2-3)n1 [Compound 238, [2,7-bis[2-[(2R,3S,4R,5S,6R)-3,4,5-trihydroxy-6-(hydroxymethyl)tetrahydropyran-2-yl]ethynyl]spiro[fluorene-9,4piperidine]-1yl]-(1-methylpyrazol-3-yl)methanone] — 5-fold lower, 0.09 nM
- COc1cc(C#C[C@H]2O[C@H](CO)[C@@H](O)[C@H](O)[C@@H]2O)ncc1C#C[C@H]1O[C@H](CO)[C@@H](O)[C@H](O)[C@@H]1O [Compound 134, (2R,3S,4R,5S,6R)-2-(hydroxymethyl)-6-[2-[4-methoxy-5-[2-[(2R,3S,4R,5S,6R)-3,4,5-trihydroxy-6-(hydroxymethyl)tetrahydropyran-2-yl]ethynyl]-2-pyridyl]ethynyl]tetrahydropyran-3,4,5-triol] — 98-fold higher, 44 nM
- OC[C@H]1O[C@H](C#Cc2ccc3[nH]c4ccc(C#C[C@H]5O[C@H](CO)[C@@H](O)[C@H](O)[C@@H]5O)cc4c3c2)[C@@H](O)[C@@H](O)[C@@H]1O [Compound 108, (2R,3S,4R,5S,6R)-2-(hydroxymethyl)-6-[2-[6-[2-[(2R,3S,4R,5S,6R)-3,4,5-trihydroxy-6-(hydroxymethyl)tetrahydropyran-2-yl]ethynyl]-9H-carbazol-3-yl]ethynyl]tetrahydropyran-3,4,5-triol] — 62-fold higher, 28 nM
- OC[C@H]1O[C@H](C#Cc2ccc(C#C[C@H]3O[C@H](CO)[C@@H](O)[C@H](O)[C@@H]3O)s2)[C@@H](O)[C@@H](O)[C@@H]1O [Compound 138] — 69-fold higher, 31 nM
- O=C1CC[C@@H](C(=O)c2c(C#C[C@H]3O[C@H](CO)[C@@H](O)[C@H](O)[C@@H]3O)ccc3c2C2(CCNCC2)c2cc(C#C[C@H]4O[C@H](CO)[C@@H](O)[C@H](O)[C@@H]4O)ccc2-3)N1 [Compound 244, (5S)-5-[2,7-bis[2-[(2R,3S,4R,5S,6R)-3,4,5-trihydroxy-6-(hydroxymethyl)tetrahydropyran-2-yl]ethynyl]spiro[fluorene-9,4piperidine]-1carbonyl]pyrrolidin-2-one] — 1.9-fold lower, 0.24 nM
- OC[C@H]1O[C@H](C#Cc2ccc(C#C[C@H]3O[C@H](CO)[C@@H](O)[C@H](O)[C@@H]3O)c(F)c2)[C@@H](O)[C@@H](O)[C@@H]1O [Compound 105, (2R,3S,4R,5S,6R)-2-[2-[3-fluoro-4-[2-[(2R,3S,4R,5S,6R)-3,4,5-trihydroxy-6-(hydroxymethyl)tetrahydropyran-2-yl]ethynyl]phenyl]ethynyl]-6-(hydroxymethyl)tetrahydropyran-3,4,5-triol] — 100-fold higher, 46 nM
- CN(C)CC(O)Cn1c2ccc(C#C[C@H]3O[C@H](CO)[C@@H](O)[C@H](O)[C@@H]3O)cc2c2cc(C#C[C@H]3O[C@H](CO)[C@@H](O)[C@H](O)[C@@H]3O)ccc21 (stereo partly drawn) [Compound 173, (2R,3S,4R,5S,6R)-2-[2-[9-[3-(dimethylamino)-2-hydroxy-propyl]-6-[2-[(2R,3S,4R,5S,6R)-3,4,5-trihydroxy-6-(hydroxymethyl)tetrahydropyran-2-yl]ethynyl]carbazol-3-yl]ethynyl]-6-(hydroxymethyl)tetrahydropyran-3,4,5-triol] — 21-fold higher, 9.3 nM
- OC[C@H]1O[C@H](C#Cc2cc(-c3ccccc3)c(C#C[C@H]3O[C@H](CO)[C@@H](O)[C@H](O)[C@@H]3O)cc2-c2ccccc2)[C@@H](O)[C@@H](O)[C@@H]1O [Compound 81, (2R,3S,4R,5S,6R)-2-[2-[2,5-dipheny1-4[2-[(2R,3S,4R,5S,6R)-3,4,5-trihydroxy-6-(hydroxymethyl)tetrahydropyran-2-yl]ethynyl]phenyl]ethynyl]-6-(hydroxymethyl)tetrahydropyran-3,4,5-triol] — 20-fold higher, 9 nM
- Cc1cc(C2CC2c2ccc([C@H]3O[C@H](CO)[C@@H](O)[C@H](O)[C@@H]3O)c(C)c2)ccc1[C@H]1O[C@H](CO)[C@@H](O)[C@H](O)[C@@H]1O (stereo partly drawn) [Compound 160, (2R,3S,4R,5S,6R)-2-(hydroxymethyl)-6-[2-methyl-4-[2-[3-methyl-4-[(2R,3S,4R,5S,6R)-3,4,5-trihydroxy-6-(hydroxymethyl)tetrahydropyran-2-yl]phenyl]cyclopropyl]phenyl]tetrahydropyran-3,4,5-triol] — 38-fold higher, 17 nM
- Cc1cc([C@H]2O[C@H](CO)[C@@H](O)[C@H](O)[C@@H]2O)ccc1C#C[C@H]1O[C@H](CO)[C@@H](O)[C@H](O)[C@@H]1O [Compound 143] — 530-fold higher, 240 nM
- O=C1CCC2(CCO1)c1cc(C#C[C@H]3O[C@H](CO)[C@@H](O)[C@H](O)[C@@H]3O)ccc1-c1ccc(C#C[C@H]3O[C@H](CO)[C@@H](O)[C@H](O)[C@@H]3O)cc12 [Compound 218, 2,7-bis[2-[(2R,3S,4R,5S,6R)-3,4,5-trihydroxy-6-(hydroxymethyl)tetrahydropyran-2-yl]ethynyl]spiro[fluorene-9,5oxepane]-2one] — 5-fold lower, 0.09 nM
- CCCCCCc1cc(C#C[C@H]2O[C@H](CO)[C@@H](O)[C@H](O)[C@@H]2O)c(CCCCCC)cc1C#C[C@H]1O[C@H](CO)[C@@H](O)[C@H](O)[C@@H]1O [Compound 82, (2R,3S,4R,5S,6R)-2-[2-[2,5-dihexyl-4-[2-[(2R,3S,4R,5S,6R)-3,4,5-trihydroxy-6-(hydroxymethyl)tetrahydropyran-2-yl]ethynyl]phenyl]ethynyl]-6-(hydroxymethyl)tetrahydropyran-3,4,5-triol] — 40-fold higher, 18 nM
- CC(C)CC1(O)c2cc(C#C[C@H]3O[C@H](CO)[C@@H](O)[C@H](O)[C@@H]3O)ccc2-c2ccc(C#C[C@H]3O[C@H](CO)[C@@H](O)[C@H](O)[C@@H]3O)cc21 [Compound 169, (2R,3S,4R,5S,6R)-2-[2-[9-hydroxy-9-isobutyl-7-[2-[(2R,3S,4R,5S,6R)-3,4,5-trihydroxy-6-(hydroxymethyl)tetrahydropyran-2-yl]ethynyl]fluoren-2-yl]ethynyl]-6-(hydroxymethyl)tetrahydropyran-3,4,5-triol] — within 1.5-fold, 0.66 nM
- Cn1c2cc(C#C[C@H]3O[C@H](CO)[C@@H](O)[C@H](O)[C@@H]3O)ccc2c2ccc(C#C[C@H]3O[C@H](CO)[C@@H](O)[C@H](O)[C@@H]3O)cc21 [Compound 112, (2R,3S,4R,5S,6R)-2-(hydroxymethyl)-6-[2-[9-methyl-7-[2-[(2R,3S,4R,5S,6R)-3,4,5-trihydroxy-6-(hydroxymethyl)tetrahydropyran-2-yl]ethynyl]carbazol-2-yl]ethynyl]tetrahydropyran-3,4,5-triol] — 38-fold higher, 17 nM
- Cc1cc(-c2ccc(C#C[C@H]3O[C@H](CO)[C@@H](O)[C@H](O)[C@@H]3O)c(C)c2)ccc1C#C[C@H]1O[C@H](CO)[C@@H](O)[C@H](O)[C@@H]1O [Compound 121, (2R,3S,4R,5S,6R)-2-(hydroxymethyl)-6-[2-[2-methyl-4-[3-methyl-4-[2-[(2R,3S,4R,5S,6R)-3,4,5-trihydroxy-6-(hydroxymethyl)tetrahydropyran-2-yl]ethynyl]phenyl]phenyl]ethynyl]tetrahydropyran-3,4,5-triol] — 27-fold higher, 12 nM
- OC[C@H]1O[C@H](C#Cc2ccc3c(c2)C2(CCOCC2)c2cc(C#C[C@H]4O[C@H](CO)[C@@H](O)[C@H](O)[C@@H]4O)ccc2-3)[C@@H](O)[C@@H](O)[C@@H]1O [Compound 162, (2R,2,3S,3,4R,4,5S,5,6R,6)-6,6((2tetrahydrospiro[fluorene-9,4pyran]-2,7-diyl)bis(ethyne-2,1-diyl))bis(2-(hydroxymethyl)tetrahydro-2H-pyran-3,4,5-triol)] — 4.1-fold lower, 0.11 nM
- CN(C)CCN(C)C1c2cc(C#C[C@H]3O[C@H](CO)[C@@H](O)[C@H](O)[C@@H]3O)ccc2-c2ccc(C#C[C@H]3O[C@H](CO)[C@@H](O)[C@H](O)[C@@H]3O)cc21 [Compound 213, (2R,3S,4R,5S,6R)-2-[2-[9-[2-(dimethylamino)ethyl-methyl-amino]-7-[2-[(2R,3S,4R,5S,6R)-3,4,5-trihydroxy-6-(hydroxymethyl)tetrahydropyran-2-yl]ethynyl]-9H-fluoren-2-yl]ethynyl]-6-(hydroxymethyl)tetrahydropyran-3,4,5-triol] — 8.2-fold higher, 3.7 nM
